Measurements reported in paper PMC6240096, “A hPSC-based platform to discover gene-environment interactions that impact human β-cell and dopamine neuron survival” (Nature Communications, 2018).
pIC50: −log10 of the molar value.

Assays:
[1] = system: CD29+CD73+ MSCs; test: Inhibition curve on hESC-derived MSCs; type: cell-based, human; conditions: cell survival rate, 4 days, n=3
Procedure: (§1) hESCs-derived INS^+ cells, MSCs[43], neurons, and hepatocytes[44] were derived based on the reported protocols and re-plated on 96-well plates with Accutase digestion. Cardiomyocytes (CMs) were differentiated from H9-MYH6: mCherry reporter line, based on the reported protocol. After overnight incubation, cells were treated with DMSO or different doses of hit compounds for 4 days. After fixation, the cells were stained with markers for each cell type. DAPI was used to stain cell nuclei. Plates were analyzed by ImageXpress^MICRO Automated High-Content Analysis System.
(§2) Supplementary Figure 4. Assessment of the toxic effect of propargite on different type […]
(§3) (a) Flow cytometry char acterization of CD29+ and CD73+ mesenchymal stem cells (MSCs) derived from H1 hESCs. (b-c) microscope image (b) and flow cytometry (c) characterization of cardiomyocytes expressing MYH6+ derived from a MYH6:mCherry reporter hESC line. (d-e) Immunocytochemistry characterization of MAP2+/TUJ1+ and HuC/D+/MAP2+ neurons (d) and A1AT+/ASGPR1+ hepatocytes (e) derived from H1 hESCs. All the cells were counterstained by DAPI (blue). Scale bars, 100 µm. (f) Inhibition curve of propargite on pancreatic β-like cells, MSCs, cardiomyocytes, neurons, and hepatocytes derived from hESCs, and BJ-fibroblasts (n=3). Values presented as mean±S.D. […]

[2] = system: BJ-fibroblasts; test: Inhibition curve on BJ-fibroblasts; type: cell-based, human; conditions: cell survival rate, 4 days, n=3
Procedure: as §1, §2, §3

[3] = system: mDA neurons; test: Survival of hESC-derived midbrain dopamine neurons; type: cell-based, human
Procedure: Scale bars, 50 μm. b Relative cell survival rate of cortical- and mDA-neurons treated with DMSO or different doses of propargite. […] White arrows indicate propargite-treated mDA cells (TH; red) co-stained with the DNA damage marker (rH2AX; green), and all cells were counterstained with DAPI (blue). […] Values presented as mean ± S.D. p-value was calculated by unpaired two-tailed Student’s t-test were *p < 0.05, **p < 0.01. n.s. indicates a non-significant difference.
Cortical and mDA differentiation from hESC were done with similar protocols those published by our lab previously[36],[37].

[4] = system: hESC-derived INS+ cells; test: Ki67 proliferation staining of hESC-derived INS+ cells; type: cell-based, human; conditions: 1.6 µM propargite vs DMSO
Procedure: Cells were fixed with 10% (v/v) formalin for 20 min at room temperature (RT) and blocked in a solution of Mg^2+- and Ca^2+-free PBS containing 5% horse serum and 0.3% Triton-X for 1 h at room temperature and followed by incubation with primary antibody at 4 °C overnight. The following primary antibodies and dilutions have been used in this study: goat anti-SOX17 (1:500, R&D system, AF1924), rabbit anti-FOXA2 (1:500, Upstate, 07-633), goat anti-PDX1 (1:500, R&D system, AF2419), mouse anti-NKX6.1 (1:100; BCBC, Ab2024), guinea pig anti-INS (1:1000, Dako, A0564), guinea pig anti-GLUCAGON (1:500, Linco, 4031), mouse anti-Ki67 (1:100, Life technologies, 556003), mouse anti-AMYLASE (1:100, Santa Cruz, sc-46657), rabbit anti-Active Caspase-3 (1:500, BD Bioscience, 559565), mouse anti-Troponin T (1:500, Thermo Scientific, MA5-12960), mouse anti-Actin, Cardiac (1:300, Sigma, A9357), rabbit anti-TUJ1 (1:500, Covance, MRB-435P), Chicken anti-MAP2 (1:1000, Abcam, Ab5392), mouse anti-HuC/D (1:500, Invitrogen, A-21271), mouse anti-MAP2 (1:1500, Sigma, M1406), rabbit anti-TH (1:500, Pel freeze, P40101-0), rat-anti-CTIP2 (1:500, Abcam, ab18465), goat anti-FOXA2 (1:200, R&D, 463783). Donkey anti-guinea pig, mouse, goat, rabbit or chicken secondary antibodies conjugated with Alexa-Fluor-488, Alexa-Fluor-594 or Alexa-Fluor-647 fluorophore (1:500, Life technologies) were used. […]

[5] = system: primary human islets; test: Primary human islets, INS and propidium iodide staining; type: cell-based; conditions: 4 days treatment
Source text: Fig. 1 A high-content screen identifies propargite as a compound that induces pancreatic β-cell death. a Scheme of pancreatic β-cell differentiation and high-content chemical screen. b Chemical structure of two hit compounds: Propargite and Vacor. c Inhibitory curve and IC50 of propargite or Vacor on INS^+ and INS^− cells (n = 8). d, e Immunocytochemistry analysis (d) and survival rate (e) of H1-derived glucose-responding INS^+ and INS^− cells treated with different doses of propargite (n = 8). Pancreatic β-like cells were stained for INS (green) and all cells were counterstained by DAPI (blue). Scale bars, 100 μm. The survival rate was calculated by dividing the average number of cells in propargite-treated conditions by the average number of cells in the DMSO control. f, g Representative live images (f) and fold-change (g) of INS^w/GFP HES3-derived INS-GFP^+ cells treated with 1.6 μM propargite or DMSO control at different time points compared to initial time 0 (n = 3). Scale bars, 100 μm. h, i, j Representative images (h) and cell survival rate (i) or cell death rate (j) of DMSO or propargite-treated human primary islets (n = 3). Pancreatic β-cells were stained with the INS antibody (green) and dead cells were stained with propidium iodide (PI) (red). Scale bars, 200 μm. Scale bars for higher resolution (Zoom) images, […]. Pancreatic β-cell death rate was calculated by defining percentages of INS^+ PI^+ cells in INS^+ cells, and non-β-cell death rate was calculated by percentages of INS^−PI^+ cells in INS^− cells.

[6] = system: MIN6 cells; test: Intracellular ROS detection; conditions: propargite-treated MIN6 cells
Procedure: Total intracellular ROS were detected using DCFDA-Cellular Reactive Oxygen Species Detection Assay Kit (Abcam, ab113851).
Species detection for different doses of propargite-treated MIN6 cells (n=3). 50 µM TBHP
was used as a positive control.

2-(4-tert-butylphenoxy)-cyclohexyl prop-2-yne-1-sulfonate [propargite]
pIC50 [1]: 5.23
pIC50 [2]: 5.52
mDA neuron cell death ([3]; concentrations at 1 and 3 μM, compared with cortical neurons): significant mDA neuron cell death
decrease of total cell number in DA neuron cultures ([3]; propargite 1 µM, 3 µM): 40-60%
sensitivity of GSTT1-/- hESC-derived mDA neurons vs GSTT1+/+ or GSTM1-/- ([3]; propargite 3 μM, FOXA2+ cells): more sensitive
percentage of Ki67+/INS+ cells [4]: did not affect
number of INS+ cells in primary human islets [5]: decreased
percentage of PI+/INS+ cells in INS+ cells [5]: increased percentage
reactive oxygen species (ROS) [6]: did not find any increase
